# Data from paper PMC4955782 (Archives of biochemistry and biophysics, 2016).
# Like-named read-outs stand apart in the source and are kept apart here.
# Legend:
# [1] = system: tubulin; conditions: reported by David et al.; cited from earlier work
# [2] = system: tubulin; assay: Polymer formation without GTP at 0 °C; assay type: biochemical, bovine; conditions: no GTP; for % tubulin in polymer ± SE: single compound 30 μM, 20 min, 1.0 mg/mL tubulin; for spiral formation (centrifugation study, Fig. 7A): 10 μM tubulin, concentrations up to 30 μM
# [3] = system: tubulin; assay: Inhibition of MAP-dependent microtubule assembly; assay type: biochemical, bovine
# [4] = system: αβ-tubulin dimer; assay: Binding of radiolabeled compounds to αβ-tubulin dimer; parameters: species or system bovine; conditions: radiolabeled compound
# [5] = molecular target: tubulin (Bos taurus, UniProt P81947+Q6B856); assay: Aberrant tubulin assembly; conditions: for extent of aberrant assembly reaction (turbidity), % of its maximum: within 20 min at 0 °C, 10 μM compound, 10 μM tubulin, 0.6 M glutamate, 1.0 mM MgCl2, 50 μM GTP
# tubulin (Bos taurus, UniProt P81947+Q6B856), sequence (P81947 whole entry): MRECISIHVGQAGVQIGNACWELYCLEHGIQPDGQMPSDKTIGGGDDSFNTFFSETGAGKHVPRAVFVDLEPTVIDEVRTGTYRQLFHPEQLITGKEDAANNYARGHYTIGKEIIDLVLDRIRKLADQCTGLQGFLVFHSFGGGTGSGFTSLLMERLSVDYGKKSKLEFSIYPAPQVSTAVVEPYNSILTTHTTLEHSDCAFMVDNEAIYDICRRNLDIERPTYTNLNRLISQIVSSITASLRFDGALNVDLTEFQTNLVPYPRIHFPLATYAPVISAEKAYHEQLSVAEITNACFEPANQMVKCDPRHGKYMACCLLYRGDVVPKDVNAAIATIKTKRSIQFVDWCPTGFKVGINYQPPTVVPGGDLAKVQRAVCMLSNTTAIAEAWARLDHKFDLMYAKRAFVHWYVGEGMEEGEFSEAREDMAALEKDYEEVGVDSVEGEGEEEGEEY
# tubulin (Bos taurus, UniProt P81947+Q6B856), sequence (Q6B856 whole entry): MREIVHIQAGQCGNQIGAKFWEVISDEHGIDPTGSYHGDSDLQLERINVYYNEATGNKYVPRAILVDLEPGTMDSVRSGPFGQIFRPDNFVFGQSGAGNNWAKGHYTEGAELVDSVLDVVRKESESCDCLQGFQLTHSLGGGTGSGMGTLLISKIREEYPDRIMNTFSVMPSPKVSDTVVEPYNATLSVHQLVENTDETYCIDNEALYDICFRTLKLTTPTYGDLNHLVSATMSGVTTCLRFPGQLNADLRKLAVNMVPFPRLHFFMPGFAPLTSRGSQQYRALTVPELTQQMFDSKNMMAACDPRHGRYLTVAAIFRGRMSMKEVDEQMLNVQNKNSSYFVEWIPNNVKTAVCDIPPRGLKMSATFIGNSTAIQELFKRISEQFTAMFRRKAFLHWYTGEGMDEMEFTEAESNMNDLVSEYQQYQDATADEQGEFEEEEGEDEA
# [6] = system: tubulin; assay type: binding, bovine; conditions: for maximum stoichiometry of compound incorporation into aberrant polymer: 80 μM compound; for compound incorporated into induced polymers, as little as: substoichiometric reactions (abstract)
# [7] = system: cultured cells; conditions: cited from earlier work
# [8] = 5 μM compound, 10 μM tubulin, 22 °C, 30 min
# [9] = 10 μM radiolabeled ligand alone (Table 3)
# [10] = compound and tubulin equimolar (10 μM each)
compound,measurement,setting,value
COc1cc2cc(c1Cl)N(C)C(=O)C[C@H](OC(=O)[C@H](C)N(C)C(C)=O)[C@]1(C)O[C@H]1[C@H](C)[C@@H]1C[C@@](O)(NC(=O)O1)[C@H](OC)/C=C/C=C(\C)C2 [Maytansine],inhibition of (−)-rhazinilam aberrant assembly reaction,[1],inhibited
N#Cc1c(-c2ccccc2)c(-c2ccccc2)nn(Cc2nn[nH]n2)c1=O [NSC 608593],% tubulin in polymer ± SE,[2],0 ± 1%
Cc1nn(CC(=O)O)c(=O)c(C#N)c1-c1ccccc1 [NSC 608600],effect on microtubule assembly,[3],no significant effect on microtubule assembly
Cc1c(-c2ccccc2)nn(CC(=O)O)c(=O)c1C#N [NSC 608602],effect on microtubule assembly,[3],no significant effect on microtubule assembly
N#Cc1c(-c2ccc(F)cc2)c(-c2ccc(F)cc2)nn(Cc2nn[nH]n2)c1=O [NSC 613241],"spiral formation (centrifugation study, Fig. 7A)",[2],minimal
same,% tubulin in polymer ± SE,[2],0 ± 2%
same,binding to the αβ-tubulin dimer,[4],unable to demonstrate binding
same,delay of aberrant assembly after addition of compound,"[5]; 0 °C, 0.6 M monosodium glutamate, 50 μM GTP, 1 mM MgCl2, 2% dimethyl sulfoxide",about 1 min
same,"extent of aberrant assembly reaction (turbidity), % of its maximum",[5],30–35%
same,% of the tubulin in polymer pellet,[6]; [8],73%
same,% tubulin recovered in pellet,[6]; 10 μM [3H](−)-rhazinilam plus 80 μM nonradiolabeled inhibitor,89 ± 6.4%
same,% tubulin recovered in pellet,[6]; [9],72 ± 5.4%
same,Ligand bound/tubulin in aberrant polymer ± SD,"[6]; 10 μM radiolabeled ligand alone, 22 °C, 30 min (Table 3)",0.15 ± 0.013
same,% of the tubulin in polymer pellet,"[6]; 20 μM compound, 10 μM tubulin",about 90%
same,% of the tubulin in polymer,"[6]; 40 μM compound, 10 μM tubulin",~100%
same,stoichiometry of compound to tubulin in the pellets,"[6]; 40 μM compound, 10 μM tubulin",0.42
same,maximum stoichiometry of compound incorporation into aberrant polymer,[6]; 10 μM tubulin,0.62
same,stoichiometry of compound to tubulin in the pellets,[6]; [10],0.11
same,"compound incorporated into induced polymers, as little as",[6],0.1–0.2 mol compound/mol of tubulin
CC[C@]1(O)C[C@@H]2CN(CCc3c([nH]c4ccccc34)[C@@](C(=O)OC)(c3cc4c(cc3OC)N(C)[C@H]3[C@@](O)(C(=O)OC)[C@H](OC(C)=O)[C@]5(CC)C=CCN6CC[C@]43[C@@H]65)C2)C1 [Vinblastine],inhibition of (−)-rhazinilam aberrant assembly reaction,[1],inhibited
(−)-Rhazinilam [reference compound],"spiral formation (centrifugation study, Fig. 7A)",[2],minimal
same,% tubulin in polymer ± SE,[2],0 ± 2%
same,IC50 values in treated cells,[7],low μM range
same,binding to the αβ-tubulin dimer,[4],unable to demonstrate binding
same,"extent of aberrant assembly reaction (turbidity), % of its maximum",[5],little or no change in turbidity
same,% of the tubulin in polymer pellet,[6]; [8],53%
same,% tubulin recovered in pellet,[6]; 10 μM [3H]NSC 613241 plus 80 μM nonradiolabeled inhibitor,95 ± 5.2%
same,% tubulin recovered in pellet,[6]; [9],37 ± 5.1%
same,% of the tubulin in polymer pellet,"[6]; 20 μM compound, 10 μM tubulin",about 90%
same,% of the tubulin in polymer,"[6]; 40 μM compound, 10 μM tubulin",~100%
same,stoichiometry of compound to tubulin in the pellets,"[6]; 40 μM compound, 10 μM tubulin",0.47
same,maximum stoichiometry of compound incorporation into aberrant polymer,[6]; 10 μM tubulin,0.68
same,stoichiometry of compound to tubulin in the pellets,[6]; [10],0.13
same,"compound incorporated into induced polymers, as little as",[6],0.1–0.2 mol compound/mol of tubulin
